According to PubChem BioAssay (NCI):
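96-well plates; 48 h exposure; 5 concentrations. Endpoints by linear interpolation between flanking doses. Not reached: highest tested concentration assigned. At the TGI there is no net growth.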

Key:
Experiment in all cases: growth of human tumour cells (NCI), 48 h
SK-MEL-28 melanoma = test system: SK-MEL-28 melanoma
ACHN renal = test system: ACHN renal
HCT-116 colon = test system: HCT-116 colon
NCI/ADR-RES ovarian = test system: NCI/ADR-RES ovarian
KM12 colon = test system: KM12 colon
COLO 205 colon = test system: COLO 205 colon
HT29 colon = test system: HT29 colon
BT-549 breast = test system: BT-549 breast
MCF7 breast = test system: MCF7 breast
K-562 leukemia = test system: K-562 leukemia
UACC-257 melanoma = test system: UACC-257 melanoma
A498 renal = test system: A498 renal
UACC-62 melanoma = test system: UACC-62 melanoma
MDA-MB-435 = test system: MDA-MB-435
PC-3 prostate = test system: PC-3 prostate
T-47D breast = test system: T-47D breast
OVCAR-3 ovarian = test system: OVCAR-3 ovarian
OVCAR-8 ovarian = test system: OVCAR-8 ovarian
HCC-2998 colon = test system: HCC-2998 colon
HCT-15 colon = test system: HCT-15 colon
A549 NSCLC = test system: A549 NSCLC
SN12C renal = test system: SN12C renal
EKVX NSCLC = test system: EKVX NSCLC
SF-539 CNS = test system: SF-539 CNS
SK-MEL-2 melanoma = test system: SK-MEL-2 melanoma
SW-620 colon = test system: SW-620 colon
TK-10 renal = test system: TK-10 renal
DU-145 prostate = test system: DU-145 prostate
RXF 393 renal = test system: RXF 393 renal
RPMI-8226 leukemia = test system: RPMI-8226 leukemia
MOLT-4 leukemia = test system: MOLT-4 leukemia
SK-MEL-5 melanoma = test system: SK-MEL-5 melanoma
M14 melanoma = test system: M14 melanoma
SF-295 CNS = test system: SF-295 CNS
CAKI-1 renal = test system: CAKI-1 renal
SNB-75 CNS = test system: SNB-75 CNS
U251 CNS = test system: U251 CNS
OVCAR-5 ovarian = test system: OVCAR-5 ovarian
SK-OV-3 ovarian = test system: SK-OV-3 ovarian
MDA-N = test system: MDA-N
UO-31 renal = test system: UO-31 renal
IGROV1 ovarian = test system: IGROV1 ovarian
NCI-H522 lung = test system: NCI-H522 lung
NCI-H226 lung = test system: NCI-H226 lung
SF-268 CNS = test system: SF-268 CNS
OVCAR-4 ovarian = test system: OVCAR-4 ovarian
HS 578T breast = test system: HS 578T breast
786-0 renal = test system: 786-0 renal
SR leukemia = test system: SR leukemia
NCI-H460 lung = test system: NCI-H460 lung
MALME-3M melanoma = test system: MALME-3M melanoma
HOP-62 NSCLC = test system: HOP-62 NSCLC
CCRF-CEM leukemia = test system: CCRF-CEM leukemia
LOX IMVI melanoma = test system: LOX IMVI melanoma
HOP-92 NSCLC = test system: HOP-92 NSCLC
MDA-MB-231 breast = test system: MDA-MB-231 breast
SNB-19 CNS = test system: SNB-19 CNS
NCI-H23 lung = test system: NCI-H23 lung

Measured: TGI

COc1cc2c(cc1O)NC(=S)[C@@H]1CCCN1C2=O
> 100 µM: all assays above
